We go through two molecules from US10525016B2, “Nutritional compositions containing an elevated level of inositol and uses thereof” (Mead Johnson Nutrition Company, priority 2015, dated 2020).

One experiment relates to oligodendrocytes (Oligo). The experiment is described as follows: inositol on purified oligodendroglial cultures: Oligo number (MBP staining). Format: cell-based. How it is done: FIG. 1 illustrates the functional implications of inositol in oligodendroglia survival and proliferation. Inositol was added to purified oligodendroglial cultures and cells were analyzed for effects on proliferation, survival and differentiation by immunohistochemistry under the fluorescent microscopy. OPCs were analyzed by staining with antibody against PDGFRa and visualized in green fluorescence; and oligodendrocytes with that against MBP in red. […] Depletion of inositol in the medium results in a fifty percent loss of oligodendrocyte precursor cells and thirty percent loss in oligodendrocytes.
It may relate to the different mechanisms by which the OPCs respond to higher level of inositol and to the PDGF. Taken together, it is a novel finding that inositol at higher level promotes OPCs differentiation into mature Oligo.

The test system of experiment [1] is primary hippocampal neurons. The experiment is described as follows: synaptic development in primary hippocampal neurons (Bassoon/Homer immunostaining). The format is cell-based, rats. How it is done:
Primary hippocampal neurons were prepared from rats at E18. In brief, dissected hippocampi were incubated in 0.05% trypsin at 37° C. for 20 minutes and plated at a density of ˜30,000 cells per coverslip. Dissociated cells were plated on poly-L-lysine and incubated in a cell culture incubator with 5.0% CO2. Cytosine arabinoside was added at a final concentration of 2 μM per well 2 days in vitro to prevent glia cell overgrowth. For studies of inositol, neurons were either grown in inositol-free medium or in inositol-free medium supplemented with 40 μm inositol. After day 4 in vitro, neurons were grown either in inositol-free medium or in inositol-free medium supplemented with 40 μm or 200 μM inositol. At the first time of treatment at 4 days in vitro, the entire medium was exchanged for fresh medium containing nutrients, or control medium without nutrients. At the time of subsequent nutrient additions, approximately ½ of the medium was exchanged and replaced with nutrient-containing medium or control medium without nutrients. Neurons were processed for immunostaining at 14 days in vitro, i.e. after 10 days of chronic treatment. […] We determined this both by automated quantitative immunostaining for the presynaptic marker Bassoon or excitatory postsynaptic Homer, as shown in FIGS. 6 and 7 (p<0.05). […] Further, the experiment supports that the size of postsynaptic sites is larger when inositol is added, indicating more efficient synaptic transmission (p<0.05) (see, FIG. 9). Confocal imaging was performed on a Leica TCS SPE DM2500 microscope equipped with one spectral PMT. Fluorochromes imaged include Alexa 488, Alexa 555, and Alexa 647 (Invitrogen). Green fluorescence represents Bassoon presynaptic, red Homer postsynaptic, blue MAP2 dendrites. […] There was noticeable lack of growth and synapses which was visible while imaging.

The test system of experiment [2] is oligodendrocyte precursor cells (OPCs). The experiment is described as follows: inositol on purified oligodendroglial cultures: OPC number (PDGFRa staining). Format: cell-based. Here is the method:
FIG. 1 illustrates the functional implications of inositol in oligodendroglia survival and proliferation. Inositol was added to purified oligodendroglial cultures and cells were analyzed for effects on proliferation, survival and differentiation by immunohistochemistry under the fluorescent microscopy. OPCs were analyzed by staining with antibody against PDGFRa and visualized in green fluorescence; and oligodendrocytes with that against MBP in red. […] Depletion of inositol in the medium results in a fifty percent loss of oligodendrocyte precursor cells and thirty percent loss in oligodendrocytes. […] A culture condition containing 40 μM inositol in which the count of the numbers of living OPCs was normalized as 1, as a baseline control. The beginnings of culture of OPCs are equal in terms of OPC number in culture dish in all conditions. Inositol was added to each OPC culture at zero, 200 nM, 1 μM, 10 μM, 40 μM, 100 μM, and 200 μM. Since the OPCs only respond to platelet-derived growth factor PDGF, a potent mitogen, for proliferation, the condition containing 40 μM inositol and PDGF was set as a positive control. […] Such a positive effect reached about 70% of that in the positive control. […] The results are graphically illustrated in FIG. 2

In experiment [3] the test system is oligodendrocyte-DRG cocultures. Description: dose-response of inositol on oligodendrocyte-DRG coculture: myelin deposition and extent. The format is cell-based. Here is the method: FIG. 4 illustrates the utility of dual-fluorescence labeling of OPCs in green and oligodendrocytes (Oligo) in red (left), as well as myelin deposition along the DRG neuronal fibers in red (right). It is to examine a dose-response of the inositol on oligodendrocyte-DRG coculture. Inositol was added to purified oligodendrocyte-DRG cocultures and cells were analyzed for effects on proliferation, survival differentiation and myelination. […] FIG. 5 illustrates the inositol effects on the control myelin extent in a dose-responsive manner. In the coculture system, neurofibers were included to validate the effects on myelin extent. […] Taken together, oligodendroglia rely on neuronal inositol for survival, proliferation, differentiation and the instruction of the generation of the appropriate number of […] internodes and the extent of wrapping.

The mark [4] stands for this setting: increasing inositol from 40 μM to 200 μM, 14 days in vitro, p<0.05.
[5] abbreviates: depletion of inositol in the medium.

Regarding PDGF [reference compound], the “Oligo number vs baseline at 40 μM inositol” value in the experiment with oligodendrocytes (Oligo) (condition containing PDGF with 40 μM inositol, p<0.05) is recorded as “decreased significantly”.
For `O[C@H]1[C@H](O)[C@@H](O)[C@H](O)[C@@H](O)[C@H]1O` [inositol], the “health of the neurons (confocal imaging)” value in experiment [1] (depletion of inositol) was “poor health of the neurons”. Further, the “formation of functional synapses and overall neuron health” value in experiment [1] (elevated level of inositol supplement) is “significantly enhances the formation of functional synapses and overall neuron health”. Besides, the “density of synaptic specializations, excitatory postsynaptic Homer” value in experiment [1] (setting [4]) is “substantially elevates”. Also, in experiment [1] (setting [4]), the “density of synaptic specializations, presynaptic marker Bassoon” value is “substantially elevates”. The “overall health of neurons (confocal imaging)” value in experiment [1] (inositol 40 μM) and in experiment [1] (inositol 200 μM) was “significantly promotes the overall health of neurons” each time. For the same molecule, the “density of synaptic sites where both Bassoon and Homer co-localize” value in experiment [1] (inositol added, p<0.05) is reported as “strong inositol effect”. Also, the “size of postsynaptic sites” value in experiment [1] (inositol added, p<0.05) is “larger”. Also, in experiment [2] (200 μM compared to the 40 μM in the base medium), the “OPC and oligodendrocyte health” value is “significantly increased”. Also, in experiment [2] (setting [5]), the “loss of oligodendrocyte precursor cells” value was “fifty”. The “quantification of OPCs vs baseline control at 40 μM inositol” value in experiment [2] (inositol 200 nM, p<0.05) is reported as “significantly decreased”; in experiment [2] (inositol 1 μM, p<0.05), “significantly decreased”; in experiment [2] (inositol 10 μM, p<0.05), “significantly decreased”; in experiment [2] (inositol at zero, p<0.05), “significantly decreased”. The “positive effect on OPCs number relative to the positive control (40 μM inositol and PDGF)” value in experiment [2] (inositol 200 μM) is “about 70%”. Moreover, the “OPCs number vs baseline control at 40 μM inositol” value in experiment [2] (inositol 200 μM, p<0.05) was “significantly increased”. For the same molecule, the oligodendroglial survival result in experiment [2] (inositol supplementation in purified oligodendroglia cultures) is recorded as “significantly promotes oligodendroglial survival”. In experiment [2] (zero to 200 μM), the “overall response of OPC number to inositol” value was “dose-dependent manner”. In addition, the “myelin deposition along DRG neuronal fibers” value in experiment [3] (absence of inositol) was “the amount of red labeling and appearance of myelin were inappropriate”; in experiment [3] (baseline condition, 40 μM inositol) it was “myelin was wrapping around the neuronal fiber”; in experiment [3] (inositol 200 μM) it was “more myelin has been deposited along the neuronal fibers”. The “myelin internodes formed (myelin extent)” value is “few myelin internodes were formed” in experiment [3] (absence of inositol, compared to control base medium at 40 μM); “more and longer myelin internodes” in experiment [3] (inositol 200 μM compared to the controls). Besides, the “quantification of Oligo numbers vs baseline at 40 μM inositol” value in the experiment on oligodendrocytes (Oligo) (absence of inositol, p<0.05) is “significantly decreased”; with oligodendrocytes (Oligo) (inositol 200 nM, p<0.05), “significantly decreased”. Further, the loss in oligodendrocytes result with oligodendrocytes (Oligo) (setting [5]) is on record as “thirty”. Besides, in the experiment on oligodendrocytes (Oligo) (inositol 200 μM, p<0.05), the “Oligo numbers vs baseline at 40 μM inositol” value is “rise and appear a statistical significance”.
